From PubChem BioAssay (NCI)
Values joined by “and” are separate entries in the source; they are usually repeats but may differ in a detail not shown here. Equal values may be shown once.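 Following 48 hours of exposure in 96-well plates, responses at five concentrations were used to interpolate endpoints linearly. At the GI50, growth is halved. Definition used: TGI = concentration required for complete inhibition of growth.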

Tests used:
Assay in all cases: NCI-60 cell line screen, 48 h
NCI/ADR-RES ovarian = test system: NCI/ADR-RES ovarian
SF-268 CNS = test system: SF-268 CNS
CCRF-CEM leukemia = test system: CCRF-CEM leukemia
HS 578T breast = test system: HS 578T breast
TK-10 renal = test system: TK-10 renal
COLO 205 colon = test system: COLO 205 colon
ACHN renal = test system: ACHN renal
OVCAR-5 ovarian = test system: OVCAR-5 ovarian
SK-MEL-5 melanoma = test system: SK-MEL-5 melanoma
RPMI-8226 leukemia = test system: RPMI-8226 leukemia

SMILES | TGI (NCI/ADR-RES ovarian) | TGI (SF-268 CNS) | TGI (CCRF-CEM leukemia) | TGI (HS 578T breast) [µM] | TGI (TK-10 renal) | TGI (COLO 205 colon) | TGI (ACHN renal) | TGI (OVCAR-5 ovarian) | TGI (SK-MEL-5 melanoma) | TGI (RPMI-8226 leukemia) [µM] | GI50 (NCI/ADR-RES ovarian) | GI50 (SF-268 CNS) [µM] | GI50 (CCRF-CEM leukemia) | GI50 (HS 578T breast) | GI50 (TK-10 renal) | GI50 (COLO 205 colon) | GI50 (ACHN renal) | GI50 (OVCAR-5 ovarian) | GI50 (SK-MEL-5 melanoma) | GI50 (RPMI-8226 leukemia) [µM]
O=c1[nH]c(=O)n(C2OC(CO)C(O)C2O)c2c1CCCC2 (configuration not stated) | > 100 µM | > 100 µM | > 100 µM | > 100 | > 100 µM | > 100 µM | > 100 µM | > 100 µM | > 100 µM | > 100 |  |  |  |  |  |  |  |  |  | 
N#Cc1cnc2cc(OC[C@@H](O)CO)c(NC(=O)CC3CSSC3)cc2c1Nc1ccc(OCc2cccc(F)c2)c(Cl)c1 | 3.16 µM | 0.771 µM | 0.16 µM | 0.282 | 1.51 µM | 1.63 µM | 2.87 µM | 1.59 µM | 1.43 µM | 1.74 | 2.19 µM | 0.0814 | 0.0603 µM | 0.105 µM | 0.772 µM | 0.813 µM | 1.1 µM | 0.797 µM | 0.743 µM | 0.557
COc1ccc(-c2cc(/C=C3\C(=O)Nc4ccc(Cl)cc43)[nH]n2)cc1 | 17.7 µM | 19.1 µM | 16.6 µM | 22.4 | 20.7 µM | 4.7 µM | 18.4 µM | 21.1 µM | 23.6 µM | 18 | 3.85 µM | 6.48 | 3.32 µM | 3.52 µM | 8.8 µM | 2.08 µM | 5.71 µM | 8.67 µM | 5.17 µM | 4.04
C=C1C(=O)O[C@H]2[C@H]1CC/C(COC(=O)NCc1ccc(Cn3c(=O)sn(CCCCl)c3=O)cc1)=C\CC[C@@]1(C)O[C@@H]21 | > 100 µM | 10.3 µM | 4.03 µM | 49 | 3.34 µM | 3.92 µM | 3.05 µM | 5.95 µM | 14.1 µM | 3.1 | 26.9 µM | 2.63 | 0.577 µM | 5.64 µM | 1.75 µM | 2.04 µM | 1.66 µM | 2.64 µM | 3.72 µM | 0.764
Cc1sc(C)c(Cc2c(C)sc(C)c2CCl)c1CCl | > 100 µM | > 100 µM | > 100 µM | > 100 | > 100 µM | > 100 µM | > 100 µM | > 100 µM | > 100 µM | > 100 | > 100 µM | > 100 | > 100 µM | > 100 µM | > 100 µM | > 100 µM | > 100 µM | > 100 µM | > 100 µM | > 100
OCC1OC(n2ccc3c(NO)ncnc32)C(O)C1O (configuration not stated) | 1.64 µM | 2.81 µM | 0.692 µM | > 24.1 | 1.16 µM | 0.617 µM | 3.17 µM | 6.33 µM | 0.325 µM | 0.504 | 0.238 µM | 0.233 | 0.159 µM | 0.332 µM | 0.152 µM | 0.114 µM | 0.0391 µM | 0.247 µM | 0.171 µM | 0.138
COCCOC(=O)NC(=O)Nc1ccc(/C(=N/O)c2ccc(Cl)cc2)cc1 | 7.31 µM | > 100 µM | 28.1 µM | 34.3 | > 82.6 µM | 2.28 µM | 48.8 µM | 52.8 µM | 2.85 µM | 19 |  | 0.209 | 0.0989 µM | 0.157 µM | 16.5 µM | 0.14 µM | 0.186 µM | 0.308 µM | 0.0817 µM | 0.129
Clc1ccc2[nH]cc(-c3nc(-c4c[nH]c5ncccc45)cs3)c2c1 | 16.9 µM | 32.4 µM | > 100 µM | > 100 | 38.1 µM | 13.3 µM | > 100 µM | 59.5 µM | 12.5 µM | 77.1 | 3.09 µM | 5.06 | 4.14 µM | 7.59 µM | 4.71 µM | 1.73 µM | 2.82 µM | 5.63 µM | 2.98 µM | 3.34
O=C(Nc1ccc(F)cc1)c1c(NC(=O)C(F)(F)F)sc2c1CCCCC2 | 7.82 µM | 88 µM | 15.1 µM | 4.57 | 12.5 µM | 3.59 µM | 7.93 µM | 13.1 µM | 2.1 µM | 4.14 | 2.01 µM | 2.28 | 1.5 µM | 0.633 µM | 3.96 µM | 1.55 µM | 2.11 µM | 2.89 µM | 0.592 µM | 0.917
COc1cc2c3c(c1)c1cc(OC)c(OC)cc1c[n+]3CC2 | > 100 µM | 3.3 µM and 3.8 µM | > 100 µM | 20.6 | > 100 µM | 50 µM and > 100 µM | > 100 µM | > 100 µM | 50 µM and 36.6 µM | 50 | > 100 µM | 0.351 | 69.8 µM |  | > 100 µM | 14.8 µM | > 100 µM | > 100 µM | 11.8 µM | 
Cn1ncc2c(N)nc(N3CCCCC3)nc21 | > 100 µM | 69.2 µM | 85.7 µM | 76.3 | 77.8 µM | 51.4 µM | > 100 µM | > 100 µM | 33.8 µM | > 100 | > 100 µM | 29.6 | 25.7 µM | 28.3 µM | 22.9 µM | 19.7 µM | 33.6 µM | 38.5 µM | 18.4 µM | 33.1
Cc1nc2ccc(Nc3nc(NCCN4CCOCC4)nc(Nc4ccc(F)cc4)n3)cc2n1Cc1ccccc1 | 40.1 µM | 33.9 µM | 8.04 µM | 6.66 | 32.2 µM | 3.13 µM | 17.5 µM | 13.6 µM | 2.98 µM | 4.62 | 3.79 µM | 5.82 | 2.27 µM | 1.87 µM | 7.26 µM | 1.62 µM | 2.78 µM | 2.71 µM | 1.63 µM | 1.74
Cn1c(=O)c(Oc2ccccc2F)cc2cnc(NC3CCOCC3)nc21 | > 25 µM | > 25 µM | > 25 µM | > 25 | > 25 µM | > 25 µM | > 25 µM | > 25 µM | > 25 µM | > 25 | > 25 µM | > 25 | > 25 µM | > 25 µM | > 25 µM | > 25 µM | > 25 µM | > 25 µM | > 25 µM | > 25
N#Cc1c(-c2ccccc2)cc(-c2ccc(Nc3nc(Nc4ccc(Cl)cc4)nc(Nc4ccc(Cl)cc4)n3)cc2)nc1N | > 100 µM | 19.7 µM | 9.4 µM | 6.02 | 4.4 µM | 3.96 µM | 3.26 µM | 17.6 µM | 2.78 µM | > 100 | 16.2 µM | 4.33 | 3.1 µM | 1.2 µM | 1.89 µM | 1.78 µM | 1.64 µM | 4.13 µM | 1.42 µM | 3.81
Cc1nc2sc(C(=O)Nc3cccc4ccccc34)c(N)c2cc1C(=O)c1ccccc1 | > 50 µM | > 50 µM | > 50 µM | > 50 | > 50 µM | > 50 µM | > 50 µM | > 50 µM | 12.4 µM | > 50 | 1.43 µM | 3.54 | 1.66 µM | 1.3 µM | > 50 µM | 1.65 µM | 2.73 µM | 2.27 µM | 1.92 µM | 2.46
COc1ccccc1NC(=O)n1nc(N)c2ccccc21 | > 100 µM | > 100 µM | > 100 µM | > 100 | > 100 µM | > 100 µM | > 100 µM | > 100 µM | > 100 µM | > 100 | 87.4 µM | > 48.1 | > 100 µM | 36.3 µM | 64.2 µM | > 100 µM | > 81.7 µM | > 100 µM | > 87.9 µM | 48.7
OCCSCc1ccccc1 | > 100 µM | > 100 µM | > 100 µM | > 100 | > 100 µM | > 100 µM | > 100 µM | > 100 µM | > 100 µM | > 100 |  |  |  |  |  |  |  |  |  | 
Cc1cc(C)c(C[N+](C)(C)C)c(C)c1C | 16.3 µM | 10 µM | > 67.5 µM | 9.94 | 12.1 µM | 1.85 µM | > 100 µM | > 62.1 µM | 2.82 µM | 15.9 | 0.475 µM | 0.364 | 0.201 µM | 0.338 µM | 0.528 µM | 0.236 µM | 0.173 µM | 0.48 µM | 0.209 µM | 0.588
O=C(NCCCNc1cc(-c2cn(-c3ccccc3)nc2-c2cccc(O)c2)ccn1)c1ccccc1 | 9.79 µM | > 100 µM | 54.7 µM | 48.3 | 52.6 µM | 3.67 µM | > 100 µM | 75 µM | 3.12 µM | 3.3 | 2.67 µM | 3.74 | 3.14 µM | 3.06 µM | 8.39 µM | 1.71 µM | 3.47 µM | 3.93 µM | 1.49 µM | 1.06
CC/C=C\C[C@H](O)C/C=C1/C(=O)C=C[C@@H]1C/C=C\CCCC(=O)N(C)C | 7.9 µM | 13.9 µM | 5.61 µM | 27.6 | 7.48 µM | 3.3 µM | 3.43 µM | 5.51 µM | 3 µM | 6.01 | 1.08 µM | 3.04 | 0.817 µM | 4.29 µM | 2.61 µM | 1.45 µM | 1.45 µM | 2.46 µM | 1.6 µM | 0.671
CCOC(=O)C(Cc1c[nH]c2ccc(N(CCCl)CCCl)cc12)(NC(C)=O)C(=O)OCC | 47.3 µM and 64.3 µM | 46.5 µM | 5.21 µM and 19.9 µM | 68.3 | 60.5 µM and 62.7 µM | 30.4 µM and 44.2 µM | 17.3 µM and 8.2 µM | 67 µM and 75.7 µM | 25.5 µM and 137 µM | 33.4 | 14.6 µM and 11.7 µM | 5.21 | 1.33 µM and 1.47 µM | 69.5 µM and 20.9 µM | 22.2 µM and 17.6 µM | 12.2 µM and 15.3 µM | 0.917 µM and 0.342 µM | 30.8 µM and 25.2 µM | 7.34 µM and 24.5 µM | 6.41
CN1CCCN(C)C1c1cc([N+](=O)[O-])ccc1O | > 100 µM | > 100 µM | 48.5 µM | 67.8 | > 100 µM | > 100 µM | 64.3 µM | > 100 µM | 48.4 µM | > 100 |  |  |  |  |  |  |  |  |  | 
CCCCCCCCCCN(CCCCCCCCCC)CC(=O)c1ccc2cc(Br)c3ccccc3c2c1 | 3.52 µM | 9.47 µM | 6.96 µM | 21.7 | 3.26 µM | 3.16 µM | 3.19 µM | 5.6 µM | 3.28 µM | 4.88 | 1.79 µM | 3.07 | 2.36 µM | 3.59 µM | 1.76 µM | 1.66 µM | 1.68 µM | 2.23 µM | 1.74 µM | 2.27
C[C@]1(CO)[C@H]2CC[C@@]34C=C[C@@](CO)(CC[C@H]3[C@]2(C)CC[C@H]1O)C4 | > 100 µM | > 100 µM | > 100 µM | > 100 | > 100 µM | > 100 µM | > 100 µM | > 100 µM | 32.3 µM | 86.6 |  |  |  |  |  |  |  |  |  | 
O=c1nc(Nc2cccc(Cl)c2)oc2cc(Cl)oc(=O)c12 | 70.5 µM | 14.2 µM | 14.9 µM | 17.4 | 24 µM | 23.7 µM | 24.8 µM | 46.2 µM | 54.5 µM | 43.1 | 13.4 µM | 3.69 | 2.87 µM | 2.81 µM | 5.11 µM | 10.8 µM | 5 µM | 18.5 µM | 18.2 µM | 4.02
